The values that follow come from patent publication US9359279B2, “Treatment of cancer, inflammatory disease, and autoimmune disease” (AndroScience Corporation, priority 2010, dated 2016).

pIC50: −log10 of the molar value. Structures can show the parent of a compound that is named as a salt. A value given as a limit tells only on which side of the number the result lay.

One data set concerns STAT1. The experiment in a line: Western blot analysis of STAT1 protein in KT-3 cells. The class given is cell-based, human. The note with it: KT-3 cells, 1, 5, or 20 μM, 0.5-6 hours. How it is done: (§1) Western Blot Analysis of MRG, STAT1, STAT3, and STAT5 Proteins in KT-3 Cells
(§2) Western Blot analysis was performed as described in Kawashima et al., J. Immunol. 2001, 167:3652-3660, with minor modifications. Briefly, KT-3 cells were treated with 1, 5, or 20 μM of compound 6 or vehicle alone in the above described IL-6-containing medium. At various time points after incubation (i.e., 0.5, 1, 3, and 6 hours after the treatment), cells were harvested and lysed using a lysis buffer (1.0% Triton X-100, 50 mM Tris-HCl (pH 7.5), 0.1 mM EDTA, 150 mM NaCl, 200 μM Na3VO4, 50 mM NaF, 1 mM dithiothreitol, 0.4 mM phenylmethylsulfonyl fluoride, 3 μg/ml of aprotinin, 2 μg/ml of pepstatin A, 1 μg/ml of leupeptin) at 2×10^7 cells/ml on ice for 30 min. Cell lysates were harvested by centrifugation at 12,000×g for 15 min. The samples (1×10^5 cell equivalent/lane) were subjected to sodium dodecyl sulfate-polyacrylamide gel electrophoresis and subsequently transferred onto Immobilon filters (Millipore). After blocked with 5% BSA, the filter was probed with anti-pSTAT3, STAT3, STAT5, STAT1, MRG or Actin Abs. The rabbit polyclonal anti-STAT3, anti-STAT5, anti-STAT1, and anti-Actin antibodies (Abs), and mouse monoclonal anti-pSTAT3 Ab (B-7) were obtained from Santa Cruz Biotechnology. Affinity purified anti-MRG Ab was prepared as described previously in Hirose et al., J. Biol. Chem. 276:5821-5828. […]
On the technique in general: A western blot detects proteins with antibodies after separation by electrophoresis.

The test system of a further data set is STAT5. The data set is described as follows: Western blot analysis of STAT5 protein in KT-3 cells. In kind it is cell-based, human. The note with it: KT-3 cells, 1, 5, or 20 μM, 0.5-6 hours. How it is done: as §1, §2
In the next data set the test system is HCT-116 cells. The data set is described as follows: Human colon cancer (HCT-116) mouse xenograft model. The class given is in vivo. The note with it: athymic nude mice, HCT-116 xenograft, 40 mg/kg i.p. daily, days 0-4 and 7-10. How it is done:
Inhibitory Effect on Human Colon Cancer (HCT-116) in a Mouse Xenograft Model
The in vivo experiments were carried out under an Institutional Animal Care and Use Committee-approved protocol and followed Institutional guidelines for proper and humane use of animals in research. Six-week-old female athymic nude mice were purchased from the Harlan Laboratory. Each of eight mice was injected subcutaneously with 1×10^6 HCT-116 cells mixed with Matrigel (BD Bioscience) at the left flank. After injection, tumors were allowed to grow for 5 days into a palpable size (volume ˜100 mm^3) before treatment. Mice were randomized into two groups (n=4 per group). The control group was injected with a vehicle solution only (i.e., 10% DMSO and 90% corn oil), while the experimental group received a daily injection (i.p.) of compound 6 (at a dose of 40 mg/kg body weight, dissolved in the vehicle solution) from days 0 (the initiation day of injection) to 4 and from days 7 to 10. The sizes of tumors were measured twice a week using a Vernier caliper and calculated using the following formula: length×width×height×0.5236, as described in Rockwell et al., J Natl. Cancer Inst. 1972; 49:735-747.
Background: Xenograft models place foreign cells or tissue in a host animal.

The next data set relates to STAT3. The experiment in a line: Western blot analysis of STAT3 protein in KT-3 cells. The class given is cell-based, human. The note with it: KT-3 cells, 1, 5, or 20 μM, 0.5-6 hours. On the procedure: as §1, §2
In data set [1] the test system is various human tumor cell lines (HCT116, HT29, SW480, SW620, Colo205, PC-3, Dul145, CWR22RV, LNCap, NCI-H1299, A549, NCI-H460, MDA-MB-453, T-47D, MCF7, Huh-7 …). The experiment in a line: Inhibition of growth of various human tumor cell lines (MTT). In kind it is cell-based. The note with it: 0 to 5 μM, 72 h. How it is done: (§3) Inhibition of Growth of Various Human Tumor Cell Lines
(§4) The inhibitory effects of Compound 6 were determined as described below on the growth of colon cancer cells (HCT116, HT29, SW480, and SW620), colon adenocarcinoma cells (Colo205), prostate adenocarcinoma cells (PC-3 and Dul145), prostate carcinoma cells (CWR22RV and LNCap), non-small cell lung carcinoma cells (NCI-H1299), lung adnocarcinoma cells (A549), large cell lung carcinoma cells (NCI-H460), breast metastatic carcinoma cells (MDA-MB-453), breast ductal carcinoma cells (T-47D), breast adnocarcinoma cells (MCF7), hepatocellular carcinoma cells (Huh-7 and HepG2), pancreatic carcinoma cells (PANC-1), cervix adnocarcinoma cells (Hela), IL-6-dependent Lennert's T-cell lymphoma cells (KT-3), IL-6-dependent multiple myeloma cells (INA-6), multiple myeloma cells (KMM-1 and U266), myeloid leukemia cells (HL-60), and T-cell leukemia cells (Jurkat). […] The viability of the tumor cells was then assessed using the tetrazolium-based calorimetric assay (MTT) as described in Su et al., J Mol Cell Cardiol. […] The resultant formazan crystals were solubilized with MTT lysis buffer (50% DMF, 24 mM HCl, 2% Acetic Acid, 5% SDS) and the absorbance at 595 nm was measured using a Benchmark microplate reader (BIO-RAD, Hercules, Calif.). […]

Test in data set [2]: as above
The class given is cell-based. The note with it: Homo sapiens, range over all tumor cell lines tested, 72 h, read-out: IC50 values, growth of all tumor cells tested. On the procedure: as §3, §4

Data set [3] deals with human Lennert's T cell lymphoma KT-3 cells. The data set is described as follows: Inhibition of IL-6-induced proliferation of KT-3 cells (CellTiter Glo viability). The note with it: read-out: IC50 (the concentration at which a compound suppresses cell growth by 50%), hIL-6 2.5 ng/ml, 48 hours. The class given is cell-based. How it is done: Inhibitory Effects on Proliferation of Human Lernert's T Cell Lymphoma KT-3
Inhibitory effects of compounds of this invention on the growth of human Lennert's T cell lymphoma KT-3 cells, an IL-6-dependent cell line, were determined as described below. […] To experimental wells, test compounds at various concentrations (in triplicates) were added immediately after the cells were plated. To the control wells, an equal volume of vehicle, DMSO (0.1% v/v), was added. After incubating the cells with the compounds or in vehicle for 48 hours, cell viability was assessed using a CellTiter Glo Luminescent Cell Viability Assay Kit (Promega, Madison, Wis.). The resultant luminescence was quantified using Microplate Luminometer LB96V (EG&G BERTH HOLD) according to the manufacturer's protocol. The cell surviving rate was calculated by dividing the luminescence value of compound-treated cells with that of vehicle-treated cells.
A general note: Cellular ATP, detected with luciferase, serves as a proxy for viable cell number.

Another data set relates to pSTAT3. The data set is described as follows: Western blot analysis of STAT3 phosphorylation (pSTAT3) in KT-3 cells. The class given is cell-based, human. The following applies: KT-3 cells, 1, 5, or 20 μM, 0.5-6 hours. On the procedure:
as §1, §2

Another data set relates to MRG (MgcRacGAP). The data set is described as follows: Western blot analysis of MRG protein in KT-3 cells. The class given is cell-based, human. The following applies: KT-3 cells, 1, 5, or 20 μM, 0.5-6 hours. On the procedure: as §1, §2

What is called melting point is the temperature, or range, at which the solid turns liquid. `CCN(CC)CCOc1cccc(/C=C/C(=O)/C=C/c2cccc(O)c2)c1` (as salt: succinic acid salt) [Compound 47] yielded a melting point of 104 to 106 °C.

Turning to `CCS(=O)(=O)Oc1cccc(/C=C/C(=O)/C=C/c2cccc(OS(=O)(=O)CC)c2)c1` [Compound 6], in the data set on STAT1, the “expression of STAT1” value is on record as “no effect”. In addition, in the data set with STAT5, the STAT5 protein level result was “down-regulated”. Also, the “human colon cancer growth (tumor size)” value in the data set with HCT-116 cells was “inhibited human colon cancer growth”. In addition, the STAT3 protein level result with STAT3 is listed as “down-regulated”. Further, in data set [1], the “inhibitory effects on the growth of all tumor cells tested” value is listed as “dose-dependent inhibitory effects”. Besides, the results for the pIC50 in data set [2] and in [3] were 5.26 to 7.70 and at least 7.30, respectively. The “phosphorylation of STAT3 protein” value in the data set on pSTAT3 is “inhibited phosphorylation”. Further, the MRG protein level entry with MRG (MgcRacGAP) was “down-regulated”.

Regarding `O=C1/C(=C/c2cccc(O)c2)CN(C(=O)C2CC2)C/C1=C\c1cccc(O)c1` [Compound 16], in data set [3], the pIC50 was at least 7.30.

As for `CCP(=O)(CC)Oc1cccc(/C=C/C(=O)/C=C/c2cccc(OP(=O)(CC)CC)c2)c1` [Compound 18], the pIC50 in data set [3] is at least 7.30.

Take `CCN(CC)CCOc1cccc(/C=C/C(=O)/C=C/c2cccc(O)c2)c1` [Compound 19]: the pIC50 in [3] is at least 7.30.

`CCS(=O)(=O)Oc1cccc(/C=C/C(=O)/C=C/c2cccc(OS(=O)(=O)CC)c2OS(=O)(=O)CC)c1` [Compound 26]: the pIC50 in data set [3] was at least 7.30.

For `CCS(=O)(=O)Oc1cccc(/C=C/C(=O)/C=C/c2cc(OS(=O)(=O)CC)cc(OS(=O)(=O)CC)c2)c1` [Compound 27], in [3], the pIC50 is at least 7.30.

For the compound `CCN(CC)CCOc1cccc(/C=C/C(=O)/C=C/c2cccc(O)c2O)c1` [Compound 35], the pIC50 in data set [3] was at least 7.30.

In the case of `CCN(CC)CCOc1cccc(/C=C/C(=O)/C=C/c2cccc(OCCN(CC)CC)c2O)c1` [Compound 36], the pIC50 in data set [3] is at least 7.30.

As for `COc1ccc(/C=C/C(=O)/C=C/c2cccc(O)c2)cc1OC` [Compound 38], the melting point lay within 159 to 160 °C.

The compound `COc1ccc(/C=C/C(=O)/C=C/c2cccc(O)c2)cc1` [Compound 39] showed a melting point of 152 to 153 °C.

As to `O=C(/C=C/c1cccc(O)c1)/C=C/c1cccc(C(F)(F)F)c1` [Compound 41], the melting point lay within 138 to 139 °C.

The compound `O=C(/C=C/c1cccc(O)c1)/C=C/c1ccccc1F` [Compound 42] came in with a melting point of 159 to 160 °C.

For `CCS(=O)(=O)Oc1cccc(/C=C/C(=O)/C=C/c2ccc(OS(=O)(=O)CC)c(OS(=O)(=O)CC)c2)c1` [Compound 43], the melting point lay in the range of 102 to 103 °C.

On to `CCN(CC)CCOc1cccc(/C=C2\CN(C(=O)C3CC3)C/C(=C\c3cccc(O)c3)C2=O)c1` [Compound 45], for which the pIC50 in data set [3] is at least 7.30.

On to `CCN(CC)CCOc1cccc(/C=C2\CN(C(=O)C3CC3)C/C(=C\c3cccc(OCCN(CC)CC)c3)C2=O)c1` [Compound 46], for which the pIC50 in [3] was at least 7.30.

As to `O=C(/C=C/c1cccc(O)c1)/C=C/c1cccc(OCCCN2CCCCC2)c1` [Compound 56], in [3], the pIC50 is at least 7.30.

With `O=C(/C=C/c1cccc(O)c1)/C=C/c1cccc(OCCN2CCCCC2)c1` [Compound 57], in data set [3], the pIC50 is at least 7.30.
